Measured values reported in PubChem BioAssay (NCI).
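Cultured in 96-well plates, cells were exposed to test compound for 48 hours across five concentrations. At the GI50, growth is halved. TGI marks complete inhibition of growth.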

System: SF-539 CNS
Test: inhibition of tumour cell growth, NCI panel, 48 h

CC(=O)N=C1N(/C=C2\C(=O)Oc3ccccc3C2=O)C(=O)/C(=C/c2cccc(Cl)c2Cl)N1C showed a TGI of 27.7 µM.

System: SK-MEL-2 melanoma
Test: inhibition of tumour cell growth, NCI panel, 48 h

Going from Cc1ccnc2[nH]c(-c3ccc4ccccc4c3)cc(=O)c12 to CC(=O)N=C1N(/C=C2\C(=O)Oc3ccccc3C2=O)C(=O)/C(=C/c2cccc(Cl)c2Cl)N1C, the TGI rises from 28.2 µM to 60.4 µM (2.1-fold).

Compared with N#CC1C(=S)NC(c2ccccc2)=CC12CCCCC2 (centres undefined), CN=C(n1ccnc1)n1ccnc1 is higher in TGI: 55.8 µM for the first, over 100 µM for the second.

System: SK-MEL-28 melanoma
Test: inhibition of tumour cell growth, NCI panel, 48 h

Going from Cc1ccnc2[nH]c(-c3ccc4ccccc4c3)cc(=O)c12 to CC(=O)N=C1N(/C=C2\C(=O)Oc3ccccc3C2=O)C(=O)/C(=C/c2cccc(Cl)c2Cl)N1C, the TGI rises from 14.9 µM to over 100 µM.

Compared with N#CC1C(=S)NC(c2ccccc2)=CC12CCCCC2 (centres undefined), CN=C(n1ccnc1)n1ccnc1 is higher in TGI: 95.5 µM for the first, over 100 µM for the second.

System: SK-MEL-5 melanoma
Test: inhibition of tumour cell growth, NCI panel, 48 h

With Cc1ccnc2[nH]c(-c3ccc4ccccc4c3)cc(=O)c12 the GI50 was 0.437 µM.

First: Cc1ccnc2[nH]c(-c3ccc4ccccc4c3)cc(=O)c12
Second: CC(=O)N=C1N(/C=C2\C(=O)Oc3ccccc3C2=O)C(=O)/C(=C/c2cccc(Cl)c2Cl)N1C
The TGI of the first is 2.5-fold lower: 12.7 µM for the first, 32.2 µM for the second.

First: N#CC1C(=S)NC(c2ccccc2)=CC12CCCCC2 (centres undefined)
Second: CN=C(n1ccnc1)n1ccnc1
The TGI of the first is lower: 90.4 µM for the first, over 100 µM for the second.

System: SK-OV-3 ovarian
Test: inhibition of tumour cell growth, NCI panel, 48 h

First: Cc1ccnc2[nH]c(-c3ccc4ccccc4c3)cc(=O)c12
Second: CC(=O)N=C1N(/C=C2\C(=O)Oc3ccccc3C2=O)C(=O)/C(=C/c2cccc(Cl)c2Cl)N1C
The TGI of the first is 7.4-fold lower: 5.32 µM for the first, 39.4 µM for the second.

For CN=C(n1ccnc1)n1ccnc1, the TGI was over 100 µM.

System: SN12C renal
Test: inhibition of tumour cell growth, NCI panel, 48 h

Compared with Cc1ccnc2[nH]c(-c3ccc4ccccc4c3)cc(=O)c12, CC(=O)N=C1N(/C=C2\C(=O)Oc3ccccc3C2=O)C(=O)/C(=C/c2cccc(Cl)c2Cl)N1C is higher in TGI: 18.7 µM for the first, over 100 µM for the second.

N#CC1C(=S)NC(c2ccccc2)=CC12CCCCC2 (centres undefined) and CN=C(n1ccnc1)n1ccnc1 cannot be ordered by TGI: over 100 µM for the first, over 100 µM for the second.

System: SNB-19 CNS
Test: inhibition of tumour cell growth, NCI panel, 48 h

Going from Cc1ccnc2[nH]c(-c3ccc4ccccc4c3)cc(=O)c12 to N#CC1C(=S)NC(c2ccccc2)=CC12CCCCC2 (centres undefined), the TGI rises from 31 µM to over 100 µM.

In the case of CN=C(n1ccnc1)n1ccnc1, the TGI is reported as over 100 µM.

System: SNB-75 CNS
Test: inhibition of tumour cell growth, NCI panel, 48 h

Compared with Cc1ccnc2[nH]c(-c3ccc4ccccc4c3)cc(=O)c12, CC(=O)N=C1N(/C=C2\C(=O)Oc3ccccc3C2=O)C(=O)/C(=C/c2cccc(Cl)c2Cl)N1C is 13-fold higher in TGI: 4.6 µM for the first, 57.8 µM for the second.

N#CC1C(=S)NC(c2ccccc2)=CC12CCCCC2 (centres undefined) and CN=C(n1ccnc1)n1ccnc1 cannot be ordered by TGI: over 100 µM for the first, over 100 µM for the second.

System: SR leukemia
Test: inhibition of tumour cell growth, NCI panel, 48 h

Going from Cc1ccnc2[nH]c(-c3ccc4ccccc4c3)cc(=O)c12 to CC(=O)N=C1N(/C=C2\C(=O)Oc3ccccc3C2=O)C(=O)/C(=C/c2cccc(Cl)c2Cl)N1C, the TGI rises from 0.919 µM to 54.6 µM (59-fold).

First: N#CC1C(=S)NC(c2ccccc2)=CC12CCCCC2 (centres undefined)
Second: CN=C(n1ccnc1)n1ccnc1
The TGI of the first is lower: 50.2 µM for the first, over 100 µM for the second.

System: SW-620 colon
Test: inhibition of tumour cell growth, NCI panel, 48 h

First: Cc1ccnc2[nH]c(-c3ccc4ccccc4c3)cc(=O)c12
Second: CC(=O)N=C1N(/C=C2\C(=O)Oc3ccccc3C2=O)C(=O)/C(=C/c2cccc(Cl)c2Cl)N1C
The TGI of the first is lower: 13.9 µM for the first, over 100 µM for the second.

N#CC1C(=S)NC(c2ccccc2)=CC12CCCCC2 (centres undefined) and CN=C(n1ccnc1)n1ccnc1 cannot be ordered by TGI: over 100 µM for the first, over 100 µM for the second.

System: T-47D breast
Test: inhibition of tumour cell growth, NCI panel, 48 h

Compared with Cc1ccnc2[nH]c(-c3ccc4ccccc4c3)cc(=O)c12, CC(=O)N=C1N(/C=C2\C(=O)Oc3ccccc3C2=O)C(=O)/C(=C/c2cccc(Cl)c2Cl)N1C is higher in TGI: 34.6 µM for the first, over 100 µM for the second.

Compared with N#CC1C(=S)NC(c2ccccc2)=CC12CCCCC2 (centres undefined), CN=C(n1ccnc1)n1ccnc1 is higher in TGI: 31.1 µM for the first, over 100 µM for the second.

System: TK-10 renal
Test: inhibition of tumour cell growth, NCI panel, 48 h

Compared with Cc1ccnc2[nH]c(-c3ccc4ccccc4c3)cc(=O)c12, N#CC1C(=S)NC(c2ccccc2)=CC12CCCCC2 (centres undefined) is 4.1-fold higher in TGI: 13.4 µM for the first, 54.9 µM for the second.

Work on CN=C(n1ccnc1)n1ccnc1 yielded a TGI of over 100 µM.

System: U251 CNS
Test: inhibition of tumour cell growth, NCI panel, 48 h

For Cc1ccnc2[nH]c(-c3ccc4ccccc4c3)cc(=O)c12, the GI50 was 0.644 µM.

Going from Cc1ccnc2[nH]c(-c3ccc4ccccc4c3)cc(=O)c12 to CC(=O)N=C1N(/C=C2\C(=O)Oc3ccccc3C2=O)C(=O)/C(=C/c2cccc(Cl)c2Cl)N1C, the TGI rises from 10.4 µM to over 100 µM.

N#CC1C(=S)NC(c2ccccc2)=CC12CCCCC2 (centres undefined) and CN=C(n1ccnc1)n1ccnc1 cannot be ordered by TGI: over 100 µM for the first, over 100 µM for the second.

System: UACC-257 melanoma
Test: inhibition of tumour cell growth, NCI panel, 48 h

Compared with Cc1ccnc2[nH]c(-c3ccc4ccccc4c3)cc(=O)c12, CC(=O)N=C1N(/C=C2\C(=O)Oc3ccccc3C2=O)C(=O)/C(=C/c2cccc(Cl)c2Cl)N1C is higher in TGI: 32.8 µM for the first, over 100 µM for the second.

N#CC1C(=S)NC(c2ccccc2)=CC12CCCCC2 (centres undefined) and CN=C(n1ccnc1)n1ccnc1 cannot be ordered by TGI: over 100 µM for the first, over 100 µM for the second.

System: UACC-62 melanoma
Test: inhibition of tumour cell growth, NCI panel, 48 h

Compared with Cc1ccnc2[nH]c(-c3ccc4ccccc4c3)cc(=O)c12, CC(=O)N=C1N(/C=C2\C(=O)Oc3ccccc3C2=O)C(=O)/C(=C/c2cccc(Cl)c2Cl)N1C is higher in TGI: 9 µM for the first, over 100 µM for the second.

Going from N#CC1C(=S)NC(c2ccccc2)=CC12CCCCC2 (centres undefined) to CN=C(n1ccnc1)n1ccnc1, the TGI rises from 42.7 µM to over 100 µM.

System: UO-31 renal
Test: inhibition of tumour cell growth, NCI panel, 48 h

Going from Cc1ccnc2[nH]c(-c3ccc4ccccc4c3)cc(=O)c12 to N#CC1C(=S)NC(c2ccccc2)=CC12CCCCC2 (centres undefined), the TGI rises from 16 µM to 72.1 µM (4.5-fold).

In the case of CN=C(n1ccnc1)n1ccnc1, the TGI is reported as over 100 µM.
